These results are taken from patent publication US12668568B2, “Adamantanyl-substituted benzamide compounds and their use as P2X7 receptor antagonists” (The University of Sydney, priority 2018, dated 2026).

In one series the target is T1, CYP3A4 (Homo sapiens, UniProt P08684).
T1 construct: host or cells: insect cells infected with recombinant baculovirus (microsomes)
The experiment in a line: Cytochrome profiling CYP3A4 (baculosomes). The settings on record: probe fluorogenic probe substrate (not named), 10 μM substrate. Type of series: in vitro ADME. An excerpt: (§1) Cytochrome P450 (abbreviated CYP, P450 or CYP450) belong to very large and diverse superfamily of haemoproteins which accept both exogenous and endogenous compounds as substrates in enzymatic reactions and play a major role in drug metabolism. Although this class has more than 50 enzymes just 5 of them (CYP1A2, CYP2C9, CYP2C19, CYP2D6 and CYP3A4) are able to metabolise almost 90% of all drugs. Inhibition of these enzymes is one of the major reasons for drug-drug interactions. Consequently, detailed CYP inhibition profiles are a regulatory requirement for all new drugs. Inhibition potencies against the five most relevant CYP isoforms is performed using baculosomes; microsomes prepared from insect cells infected with recombinant baculovirus containing cDNA for a specific human P450 isozyme. The baculosomes are incubated with drug at a concentration of 1 μM in the presence of a probe substrate for 60 minutes at 37° C. The probe is normally metabolised by the baculosomes to produce a fluorescent metabolite. A substrate drug will compete for the isozyme and reduce the metabolism of the probe resulting in a decrease in the fluorescent signal. The percent inhibition due to the presence of the test compound is calculated using the following equation: [formula] • X=fluorescent intensity observed in the presence of test compound • A=fluorescent intensity observed in control • B=fluorescent intensity observed in the presence of the probe control

Series [1] can be described thus: Liver microsome stability. The settings on record: liver microsomes, rat liver microsome, 37° C., read-out: Liver microsome T1/2 (converted). In kind it is in vitro ADME. An excerpt: Microsomes are vesicles of endoplasmic reticulum isolated from liver homogenate following differential centrifugation. They contain drug metabolising enzymes including the cytochromes P450 (CYP) responsible for a majority of drug metabolism. They also contain the phase II metabolising enzyme responsible for glucuronidation—uridine diphosphate glucuronyltransferase (UDPGT). As they contain many of the drug metabolizing enzymes found in the liver they are useful in vitro models of hepatic clearance. Assays are performed by incubating drugs of interest at a concentration of 1 μM with the microsomes at 37° C. The disappearance of the test compound is monitored at fixed points over a period of 60 minutes and samples analysed using LC-MSMS. The resulting data can be used to determine: • 1. Intrinsic clearance. These values can be used to categorise compounds into bands of high, medium or low clearance. Generally compounds with high clearances are considered to be less favourable as they are likely to be cleared more rapidly in vivo resulting in a short duration of action. • 2. Rank order compounds in order of microsomal stability by calculating half-life. Cytochrome Profiling […]
(Liver microsomes are vesicles of endoplasmic reticulum, rich in cytochrome P450 enzymes.)

The target in another series is T2, CYP1A2 (Homo sapiens, UniProt P05177).
T2 construct: host or cells: insect cells infected with recombinant baculovirus (microsomes)
T2 sequence (P05177 1-516): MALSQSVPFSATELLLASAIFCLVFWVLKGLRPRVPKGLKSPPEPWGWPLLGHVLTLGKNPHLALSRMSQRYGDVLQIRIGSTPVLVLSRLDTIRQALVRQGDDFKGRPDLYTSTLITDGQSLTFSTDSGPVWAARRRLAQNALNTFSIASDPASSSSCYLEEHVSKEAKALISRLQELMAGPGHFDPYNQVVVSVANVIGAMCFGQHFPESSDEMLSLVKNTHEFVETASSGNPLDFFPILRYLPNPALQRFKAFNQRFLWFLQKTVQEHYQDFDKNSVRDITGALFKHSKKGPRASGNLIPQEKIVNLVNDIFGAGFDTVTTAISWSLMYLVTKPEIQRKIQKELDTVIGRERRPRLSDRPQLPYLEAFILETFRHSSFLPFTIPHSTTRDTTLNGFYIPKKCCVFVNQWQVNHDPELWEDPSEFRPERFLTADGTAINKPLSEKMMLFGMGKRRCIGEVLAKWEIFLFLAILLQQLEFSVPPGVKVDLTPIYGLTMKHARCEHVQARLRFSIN
Kind of series: Cytochrome profiling CYP1A2 (baculosomes). In kind it is in vitro ADME. Conditions: probe fluorogenic probe substrate (not named), 10 μM substrate.
Source text: as §1

The next series concerns the target T3, mP2X7R (Mus musculus, UniProt Q9Z1M0).
T3 construct: expressed in transfected cells; host or cells: HEK293T, G418-selected; gift from Dr Leanne Stokes and Prof; Jim Wiley
T3 sequence (Q9Z1M0 1-595): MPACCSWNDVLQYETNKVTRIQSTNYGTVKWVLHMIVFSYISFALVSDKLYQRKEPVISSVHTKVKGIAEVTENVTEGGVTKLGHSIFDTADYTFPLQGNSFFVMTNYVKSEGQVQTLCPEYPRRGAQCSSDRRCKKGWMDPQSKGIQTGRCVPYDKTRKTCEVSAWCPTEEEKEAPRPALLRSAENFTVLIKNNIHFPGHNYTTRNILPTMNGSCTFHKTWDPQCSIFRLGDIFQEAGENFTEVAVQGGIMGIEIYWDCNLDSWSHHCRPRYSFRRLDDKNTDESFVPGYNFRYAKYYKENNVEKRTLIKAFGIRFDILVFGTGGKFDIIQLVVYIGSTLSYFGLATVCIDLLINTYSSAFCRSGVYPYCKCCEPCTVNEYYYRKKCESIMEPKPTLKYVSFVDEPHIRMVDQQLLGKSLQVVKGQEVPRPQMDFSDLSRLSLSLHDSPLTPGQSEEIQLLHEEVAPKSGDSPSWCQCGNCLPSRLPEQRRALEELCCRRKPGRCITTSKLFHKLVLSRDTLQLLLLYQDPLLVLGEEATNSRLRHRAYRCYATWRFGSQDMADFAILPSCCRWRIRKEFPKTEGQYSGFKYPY
The experiment in a line: Calcium influx assay in HEK-mP2X7 cells. In kind it is cell-based. Conditions: HEK cells expressing mP2X7R, BzATP 100 μM; mean ± standard deviation, n >3. On the procedure: HEK293T cells transfected with cDNA for the human (HEK-hP2X7) or mouse P2X7 (HEK-mP2X7) receptor (a kind gift from Dr […] Stokes and Prof. Jim Wiley) were cultured in DMEM/F12 with 10% FBS and 500 μg/mL G418 (all from Invitrogen). […] HEK-hP2X7 or HEK-mP2X7 cells were harvested using trypsin (0.05%) with EDTA (0.03%). Cells were loaded with Fluo-4 AM (1 μM) in HBSS buffer at 37° C. for 30 min, inverting every 5 mins. […] Cells were resuspended a final time in assay buffer and seeded into black-walled 96 well clear-bottom plates at a density of 5×10^4 cells/well. […] Fluorescence was then monitored every 5 s for 5 min total monitoring. […] Data were normalized to the peak response seen with BzATP alone and the basal response seen due to injection of vehicle (see FIG. 3).

T1 sequence (P08684 whole entry): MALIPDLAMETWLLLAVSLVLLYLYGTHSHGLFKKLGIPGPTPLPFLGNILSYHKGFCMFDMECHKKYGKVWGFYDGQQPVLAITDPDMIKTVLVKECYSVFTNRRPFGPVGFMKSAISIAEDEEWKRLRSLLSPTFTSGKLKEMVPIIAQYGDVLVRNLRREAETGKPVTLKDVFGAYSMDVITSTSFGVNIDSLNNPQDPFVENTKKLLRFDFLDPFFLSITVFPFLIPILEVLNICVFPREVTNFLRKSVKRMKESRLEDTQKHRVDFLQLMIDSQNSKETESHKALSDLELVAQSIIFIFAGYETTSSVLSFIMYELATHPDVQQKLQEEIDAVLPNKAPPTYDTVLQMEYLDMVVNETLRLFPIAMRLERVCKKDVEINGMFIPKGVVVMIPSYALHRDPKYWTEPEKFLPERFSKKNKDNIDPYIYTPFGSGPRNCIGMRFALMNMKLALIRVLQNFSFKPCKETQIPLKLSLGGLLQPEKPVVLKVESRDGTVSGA

Take `COc1ccc(Cl)c(C(=O)NCC23CC4CC(CC(C4)C2)C3)c1` [Compound 31, reference compound]: the inhibition – broadly, the share of the control response that was lost under treatment – at 60 min, 1 μM on CYP3A4 was 84.4%; against CYP1A2 it was 25.7%. In addition, the half-life at 1 μM in series [1] was 7.8 min. For the same molecule, the half-inhibitory concentration (IC50) (as a rule, the concentration that gives 50% inhibition) at mP2X7R worked out at 1900 ± 905 nM.

On to `COc1ccc(Cl)c(C(=O)NCC23CC4CC(CC(F)(C4)C2)C3)c1` [Compound 3, 2-Chloro-N-((3-fluoroadamantan-1-yl)methyl)-5-methoxybenzamide], for which the inhibition at 60 min, 1 μM against CYP3A4 is 88.8%; on CYP1A2 it was 7.86%. Moreover, the half-life at 1 μM in series [1] is 4.8 min. For the same molecule, on mP2X7R, the half-maximal inhibitory concentration (IC50) is 1510 ± 339 nM.

In the case of `COc1ccc(Cl)c(C(=O)NCC23CC4(F)CC(F)(CC(F)(C4)C2)C3)c1` [Compound 1, 2-Chloro-N-((3,5,7-trifluoroadamantan-1-yl)methyl)-5-methoxybenzamide], the inhibition at 60 min, 1 μM at CYP3A4 was 89.9%; against CYP1A2, 5.48%. Moreover, the half-life at 1 μM in series [1] is 46.8 min. The half-maximal inhibitory concentration (IC50) on mP2X7R worked out at 158 ± 44 nM.

Turning to `COc1ccc(Cl)c(C(=O)NCC23CC4CC(F)(CC(F)(C4)C2)C3)c1` [Compound 2, 2-Chloro-N-((3,5-difluoroadamantan-1-yl)methyl)-5-methoxybenzamide], the inhibition at 60 min, 1 μM came out at 89.9% at CYP3A4 and 7.04% at CYP1A2. The half-life at 1 μM in series [1] was 18 min. The IC50 at mP2X7R was 575 ± 108 nM.
